{
  "source": "paper PMC9516332",
  "about": "(Frontiers in Oncology, 2022)",
  "key": {"[1]": {"tested_on": "134 cancer cell lines", "assay": "Cell viability assay (ATPlite, 72 hours), IC50 on cancer cell line panel"}, "[2]": {"tested_on": "AP-1060 (ETV6-NTRK3)", "assay": "Cell viability assay", "settings": "read-out: IC50 in cell proliferation assay"}},
  "note": "Where two headings read alike, the source gives them in different places.",
  "data": [
    {"smiles": "CC(C)(C)c1nc(-c2cccc(NS(=O)(=O)c3c(F)cccc3F)c2F)c(-c2ccnc(N)n2)s1", "note": "[dabrafenib]", "values": [
      {"measurement": "IC50", "setting": "[1]; Homo sapiens, MV4-11, read-out: IC50 in cell proliferation assay, MV4-11 cell line (FLT3 ITD)", "result": 8020, "unit": "nM"},
      {"measurement": "IC50", "setting": "[1]; Homo sapiens, MeWo, read-out: IC50 in cell proliferation assay, MeWo cell line", "result": 1020, "unit": "nM"},
      {"measurement": "IC50", "setting": "[1]; Homo sapiens, NCCIT, read-out: IC50 in cell proliferation assay, NCC-IT cell line", "result": 1160, "unit": "nM"},
      {"measurement": "IC50", "setting": "[1]; Homo sapiens, NCI-H82, read-out: IC50 in cell proliferation assay, cell line NCI-H82", "result": 1120, "unit": "nM"},
      {"measurement": "IC50", "setting": "[1]; Homo sapiens, NCI-H460, read-out: IC50 in cell proliferation assay, NCI-H460 cell line", "result": 1150, "unit": "nM"},
      {"measurement": "IC50", "setting": "[1]; Homo sapiens, NCI-H661, read-out: IC50 in cell proliferation assay, NCI-H661 cell line", "result": "> 10000", "unit": "nM"},
      {"measurement": "IC50", "setting": "[1]; Homo sapiens, NCI-H716, read-out: IC50 in cell proliferation assay, cell line NCI-H716 (FGFR2-COL14A1)", "result": 1170, "unit": "nM"},
      {"measurement": "IC50", "setting": "[1]; Homo sapiens, NCI-H1650, read-out: IC50 in cell proliferation assay, NCI-H1650 cell line (EGFR exon19del)", "result": "> 10000", "unit": "nM"},
      {"measurement": "IC50", "setting": "[1]; Homo sapiens, NCI-H1975, read-out: IC50 in cell proliferation assay, NCI-H1975 cell line (EGFR p.L858R + p.T790M)", "result": 1420, "unit": "nM"},
      {"measurement": "IC50", "setting": "[1]; Homo sapiens, NCI-H2228, read-out: IC50 in cell proliferation assay, NCI-H2228 cell line (EML4-ALK)", "result": 2200, "unit": "nM"},
      {"measurement": "IC50", "setting": "[1]; Homo sapiens, OVCAR-3, read-out: IC50 in cell proliferation assay, cell line OVCAR-3", "result": 1040, "unit": "nM"},
      {"measurement": "IC50", "setting": "[1]; Homo sapiens, PFSK-1, read-out: IC50 in cell proliferation assay, cell line PFSK-1", "result": "> 10000", "unit": "nM"},
      {"measurement": "IC50", "setting": "[1]; Homo sapiens, RL95-2, read-out: IC50 in cell proliferation assay, cell line RL95-2 (EGFR p.A289V)", "result": 2990, "unit": "nM"},
      {"measurement": "IC50", "setting": "[1]; Homo sapiens, RPMI-7951, read-out: IC50 in cell proliferation assay, cell line RPMI-7951 (BRAF p.V600E)", "result": 43, "unit": "nM"},
      {"measurement": "IC50", "setting": "[1]; Homo sapiens, RS4-11, read-out: IC50 in cell proliferation assay, cell line RS4;11", "result": 1210, "unit": "nM"},
      {"measurement": "IC50", "setting": "[1]; Homo sapiens, Rec1, read-out: IC50 in cell proliferation assay, cell line REC-1", "result": 975, "unit": "nM"},
      {"measurement": "IC50", "setting": "[1]; Homo sapiens, SHP77, read-out: IC50 in cell proliferation assay, cell line SHP-77", "result": "> 10000", "unit": "nM"},
      {"measurement": "IC50", "setting": "[1]; Homo sapiens, SK-BR-3, read-out: IC50 in cell proliferation assay, cell line SK-BR-3 (ERBB2 amplification)", "result": 1570, "unit": "nM"},
      {"measurement": "IC50", "setting": "[1]; Homo sapiens, SK-N-AS, read-out: IC50 in cell proliferation assay, cell line SK-N-AS", "result": 3020, "unit": "nM"},
      {"measurement": "IC50", "setting": "[1]; Homo sapiens, SK-N-FI, read-out: IC50 in cell proliferation assay, cell line SK-N-FI", "result": "> 10000", "unit": "nM"},
      {"measurement": "IC50", "setting": "[1]; Homo sapiens, SK-N-MC, read-out: IC50 in cell proliferation assay, cell line SK-N-MC", "result": 1780, "unit": "nM"},
      {"measurement": "IC50", "setting": "[1]; Homo sapiens, SK-N-SH, read-out: IC50 in cell proliferation assay, cell line SK-N-SH (ALK p.F1174L)", "result": 2140, "unit": "nM"},
      {"measurement": "IC50", "setting": "[1]; Homo sapiens, SNU-5, read-out: IC50 in cell proliferation assay, cell line SNU-5 (MET amplification)", "result": "> 10000", "unit": "nM"},
      {"measurement": "IC50", "setting": "[1]; Homo sapiens, SNU-16, read-out: IC50 in cell proliferation assay, cell line SNU-16 (FGFR2 amplification)", "result": "> 10000", "unit": "nM"},
      {"measurement": "IC50", "setting": "[1]; Homo sapiens, SNU-C2B, read-out: IC50 in cell proliferation assay, cell line SNU-C2B (EGFR p.R165Q)", "result": "> 10000", "unit": "nM"},
      {"measurement": "IC50", "setting": "[1]; Homo sapiens, SU-DHL-1, read-out: IC50 in cell proliferation assay, cell line SU-DHL-1 (NPM1-ALK)", "result": "> 10000", "unit": "nM"},
      {"measurement": "IC50", "setting": "[1]; Homo sapiens, SU-DHL-6, read-out: IC50 in cell proliferation assay, cell line SU-DHL-6", "result": 2610, "unit": "nM"},
      {"measurement": "IC50", "setting": "[1]; Homo sapiens, SUP-T1, read-out: IC50 in cell proliferation assay, cell line SUP-T1", "result": "> 10000", "unit": "nM"},
      {"measurement": "IC50", "setting": "[1]; Homo sapiens, SW48, read-out: IC50 in cell proliferation assay, cell line SW48 (EGFR p.G719S)", "result": 3010, "unit": "nM"},
      {"measurement": "IC50", "setting": "[1]; Homo sapiens, SW480, read-out: IC50 in cell proliferation assay, cell line SW480", "result": 2990, "unit": "nM"},
      {"measurement": "IC50", "setting": "[1]; Homo sapiens, SW626, read-out: IC50 in cell proliferation assay, cell line SW626", "result": "> 10000", "unit": "nM"},
      {"measurement": "IC50", "setting": "[1]; Homo sapiens, SW780, read-out: IC50 in cell proliferation assay, cell line SW780 (FGFR3-BAIAP2L1)", "result": "> 10000", "unit": "nM"},
      {"measurement": "IC50", "setting": "[1]; Homo sapiens, SW837, read-out: IC50 in cell proliferation assay, cell line SW837", "result": "> 10000", "unit": "nM"},
      {"measurement": "IC50", "setting": "[1]; Homo sapiens, SW872, read-out: IC50 in cell proliferation assay, cell line SW872 (BRAF p.V600E)", "result": 25, "unit": "nM"},
      {"measurement": "IC50", "setting": "[1]; Homo sapiens, SW900, read-out: IC50 in cell proliferation assay, cell line SW900", "result": 1120, "unit": "nM"},
      {"measurement": "IC50", "setting": "[1]; Homo sapiens, SW948, read-out: IC50 in cell proliferation assay, cell line SW948", "result": 2720, "unit": "nM"},
      {"measurement": "IC50", "setting": "[1]; Homo sapiens, SW982, read-out: IC50 in cell proliferation assay, cell line SW982 (BRAF p.V600E)", "result": 1160, "unit": "nM"},
      {"measurement": "IC50", "setting": "[1]; Homo sapiens, SW-620, read-out: IC50 in cell proliferation assay, cell line SW620", "result": "> 10000", "unit": "nM"},
      {"measurement": "IC50", "setting": "[1]; Homo sapiens, T98G, read-out: IC50 in cell proliferation assay, cell line T98G", "result": "> 10000", "unit": "nM"},
      {"measurement": "IC50", "setting": "[1]; Homo sapiens, TCC-SUP, read-out: IC50 in cell proliferation assay, cell line TCCSUP", "result": 2080, "unit": "nM"},
      {"measurement": "IC50", "setting": "[1]; Homo sapiens, THP-1, read-out: IC50 in cell proliferation assay, cell line THP-1", "result": "> 10000", "unit": "nM"},
      {"measurement": "IC50", "setting": "[1]; Homo sapiens, U2OS, read-out: IC50 in cell proliferation assay, cell line U2OS", "result": "> 10000", "unit": "nM"},
      {"measurement": "IC50", "setting": "[1]; Homo sapiens, U-87 MG, read-out: IC50 in cell proliferation assay, cell line U-87MG ATCC", "result": 3600, "unit": "nM"},
      {"measurement": "IC50", "setting": "[1]; Homo sapiens, U-118-MG, read-out: IC50 in cell proliferation assay, cell line U-118MG", "result": 2210, "unit": "nM"},
      {"measurement": "IC50", "setting": "[1]; Homo sapiens, UMUC3, read-out: IC50 in cell proliferation assay, cell line UM-UC-3", "result": 1950, "unit": "nM"},
      {"measurement": "IC50", "setting": "[1]; Hs766T, read-out: IC50 in cell proliferation assay, Hs 766T cell line", "result": "> 10000", "unit": "nM"},
      {"measurement": "IC50", "setting": "[1]; L-82, read-out: IC50 in cell proliferation assay, L-82 cell line (NPM1-ALK)", "result": "> 10000", "unit": "nM"},
      {"measurement": "IC50", "setting": "[1]; Rh30, read-out: IC50 in cell proliferation assay, cell line Rh30", "result": "> 10000", "unit": "nM"},
      {"measurement": "IC50", "setting": "[1]; read-out: IC50 in cell proliferation assay, 11-18 cell line (EGFR p.L858R)", "result": "> 10000", "unit": "nM"},
      {"measurement": "IC50", "setting": "[1]; read-out: IC50 in cell proliferation assay, Hs 852.T cell line", "result": 1420, "unit": "nM"},
      {"measurement": "IC50", "setting": "[1]; read-out: IC50 in cell proliferation assay, JAR cell line", "result": 1530, "unit": "nM"},
      {"measurement": "IC50", "setting": "[1]; read-out: IC50 in cell proliferation assay, cell line 5637", "result": 562, "unit": "nM"},
      {"measurement": "IC50", "setting": "[1]; read-out: IC50 in cell proliferation assay, cell line A-388", "result": "> 10000", "unit": "nM"},
      {"measurement": "IC50", "setting": "[1]; read-out: IC50 in cell proliferation assay, cell line DB", "result": 1720, "unit": "nM"},
      {"measurement": "IC50", "setting": "[1]; read-out: IC50 in cell proliferation assay, cell line DEL (NPM1-ALK)", "result": "> 10000", "unit": "nM"},
      {"measurement": "IC50", "setting": "[1]; read-out: IC50 in cell proliferation assay, cell line ES-2 (BRAF p.V600E)", "result": 130, "unit": "nM"},
      {"measurement": "IC50", "setting": "[1]; read-out: IC50 in cell proliferation assay, cell line PA-1", "result": 1710, "unit": "nM"},
      {"measurement": "IC50", "setting": "[1]; read-out: IC50 in cell proliferation assay, cell line PC-3", "result": "> 10000", "unit": "nM"},
      {"measurement": "IC50", "setting": "[1]; read-out: IC50 in cell proliferation assay, cell line RD", "result": 1790, "unit": "nM"},
      {"measurement": "IC50", "setting": "[1]; read-out: IC50 in cell proliferation assay, cell line RKO (BRAF p.V600E)", "result": 11, "unit": "nM"},
      {"measurement": "IC50", "setting": "[1]; read-out: IC50 in cell proliferation assay, cell line RL", "result": "> 10000", "unit": "nM"},
      {"measurement": "IC50", "setting": "[1]; read-out: IC50 in cell proliferation assay, cell line RT-4 (FGFR3-TACC3)", "result": "> 10000", "unit": "nM"},
      {"measurement": "IC50", "setting": "[1]; read-out: IC50 in cell proliferation assay, cell line SR (NPM1-ALK)", "result": 1760, "unit": "nM"},
      {"measurement": "IC50", "setting": "[1]; read-out: IC50 in cell proliferation assay, cell line T24", "result": 1170, "unit": "nM"},
      {"measurement": "IC50", "setting": "[1]; read-out: IC50 in cell proliferation assay, cell line TT (RET p.C634W)", "result": "> 10000", "unit": "nM"},
      {"measurement": "IC50", "setting": "[1]; read-out: IC50 in cell proliferation assay, cell line VA-ES-BJ", "result": 2100, "unit": "nM"},
      {"measurement": "IC50", "setting": "[2]", "result": 2520, "unit": "nM"}
    ]}
  ]
}
